The test has as its system pentose cycle, glucose activation and fatty acid synthesis pathways. As to the kind of experiment: stable isotope ([1,2-13C2]glucose) based dynamic metabolic profiling. The test is classed as cell-based. Conditions: for cell proliferation rates / nucleic acid ribose synthesis through the non-oxidative steps of the pentose cycle: metabolic profile induced by cell transforming agents. An excerpt: The present invention comprises, for example, the use of the stable [1,2-^13C2]glucose tracer for metabolic pathway analyses in cultures of mammalian cells, bacteria, virus hosting cells, phage hosting bacteria, tissue slices, perfused organs, living animals or humans. The invention provides a dynamic and comprehensive metabolic profiling technique by using specifically labeled glucose substrate isotopes which not only turn into intermediary metabolites but also produce mass isotopomers of these metabolites which can be separated, measured and quantitated using liquid and gas chromatography separation and mass spectrometry (GC/MS), other mass spectrometric analysis or nuclear magnetic resonance (NMR) instruments.
After treatments, while incubating with the isotope labeled glucose substrate, the profiling study may begin with the separation of cell pellets, cell culture media, blood plasma/serum or body fluids. The cell culture media may then be used for lactate and glutamate analyses. Lactate is an abundant cell media component of the 3 carbon metabolite pool of the cell. It is used to determine the relative activity of pentose cycle glucose oxidation and recycling into glycolysis, as the percent of substrate flux through glycolysis, also known as the Embden-Meyerhoff-Parnas pathway. Glutamate label accumulation represents tricarboxylic acid (TCA) cycle carbon substrate flow. Nucleic acid ribose and deoxyribose are used to determine cell viability (ribose) and cell proliferation (deoxyribose).
Cell cycle progression and the frequency of cell divisions are determined by the accumulation of ^13C label into deoxyribose, while cell viability, apoptosis and necrosis are determined by the differential incorporation of ^13C into ribose and deoxyribose. The major advantage of our label system introduced herein is that we can differentiate between glucose oxidation and nonoxidative ribose/deoxyribose synthesis during nucleic acid production in disease and health as well as during drug testing. Glycogen glucose represents glycogen synthesis, which can originate from activated glucose (direct glycogen synthesis) or indirectly from pentoses after glucose oxidation in the pentose cycle. Non-essential fatty acids of the saturated and desaturated kinds indicate the rate of de novo fatty acid synthesis from glucose and the contribution of fatty acid synthase, chain elongase and desaturase to cell differentiation, hormone synthesis and drug effects.
The details of how the invention can be carried out can be better understood by reference to the figures. […] Glucose activation via hexokinase/glucokinase and the formation of fructose-1,6-bis phosphate maintain the ^13C labeled carbons in the 1st and 2nd positions. ^13C-labeled carbon positions derived from [1,2-^13C2]glucose are shown by the “13” superscript, while ^12C native-labeled carbon positions are shown by the “12” superscript. Participating enzymes are italicized in all of the figures. Thus, a single version of the invention can be carried out by creating two separate cell culture systems. The first system is a control system which includes the ^13C labeled glucose which may be [1,2-^13C2] glucose. […]

For `Cc1ccc(NC(=O)c2ccc(CN3CCN(C)CC3)cc2)cc1Nc1nccc(-c2cccnc2)n1` [Gleevec], for the setting “metabolic profile of anticancer compounds, associated with effective tumor growth control”, the “glucose activation and oxidative and non-oxidative ribose synthesis from glucose” value is on record as “inhibited”.
Regarding `CCOP(=S)(NC(C)C)Oc1ccccc1C(=O)OC(C)C` (centres unmarked) [isofenphos], the cell proliferation rates result is reported as “increased” and the “nucleic acid ribose synthesis through the non-oxidative steps of the pentose cycle” value is recorded as “intense”.
The like results for “transforming growth factor beta [TGF-beta]” were, in that order, “increased” and “intense”.

(Values after US20050281745A1, “Stable isotope based dynamic metabolic profiling of living organisms for characterization of metabolic diseases, drug testing and drug development” (priority 2002, published 2005).)
